Reference: US20040014672A1, “Novel crystalline form of 6-hydroxy-3-(4-[2-(piperidin-1-yl)ethoxy]phenoxy)-2-(4-methoxyphenyl)benzo[b]thiophene hydrochloride” (priority 2003, published 2004)

Experiments:
Type in all cases: physicochemical
[1] = Moisture sorption/desorption isotherm; conditions: over the range of 0-95% RH, 25° C.
Source text: It is most commonly used to study to study desolvation processes and quantatively determine the total volatile content of a solid. DSC is a technique that is often used to screen compounds for polymorphism because the temperatures(s) at which a physical change in a material occurs is usually characteristic of that material. Moisture sorption isotherms provide evaluation of the degree of hydroscopicity associated with a given material and characterization of non-hydrates and hydrates. Lastly, XRD is a technique that detects long-range order in a crystalline material. Moisture Sorption Isotherms were generated using a VTI SGA-100 flow instrument. The samples were analyzed at 25° C. from 0-95% relative humidity (RH) for adsorption and from 95-5% RH for desorption in steps of 5% RH. The adsorption and desorption isotherms were generated as a graph of the % weight change vs. % RH.

[2] = Aqueous solubility
[3] = Variable temperature X-ray powder diffraction (crystal form stability); conditions: up to 125° C., increments of 25° C.
Description: Variable temperature X-ray powder diffraction patterns were obtained on a Siemens D5000 X-ray powder diffractometer which was equipped with a CuKα source (λ=1.54056) operated at 50 kV and 40 mA with a scintillation detector and nickel filter. The powder was packed into a top-loading, recessed temperature controlled holder and a smooth surface was obtained for diffraction. The sample was scanned from 2 to 35° 2θ at 2.5 seconds per step size of 0.04° beginning at 25° C. after an equilibration time of 5 minutes. Subsequent scans were obtained at increasing temperature increments of 25° C. to a maximum of 125° C.

weight increase in moisture sorption/desorption isotherm [1]: 0.11%
higher aqueous solubility relative to F-III [2]: ~10%
change in the diffraction pattern on heating [3]: no significant change
Structure (SMILES): COc1ccc(-c2sc3cc(O)ccc3c2Oc2ccc(OCCN3CCCCC3)cc2)cc1.Cl [F-V, 6-hydroxy-3-(4-[2-(piperidin-1-yl)ethoxy]phenoxy)-2-(4-methoxyphenyl)benzo[b]thiophene hydrochloride]
